# Reference: patent US20080260753A1, “Mouse Models of Crohn's Disease and a Method to Develop Specific Therapeutics” (priority 2004, published 2008)
# Experiments:
# [1] = test system: BMDMs from WT and Nod2^2939iC (m/m) mice; test: Cytokine secretion by stimulated BMDMs (ELISA, immunoblotting); type: cell-based, mouse
# Experimental: Macrophage culture and treatment. BMDMs were cultured as described (Park et al., Science 297: 2048, 2002). Confluent cultures were treated with different bacterial components including MDP (Bachem), synthetic peptidoglycan-Pam3Cys (InvivoGen), natural gram positive peptidoglycan (from S. aureus, Sigma), LPS (from E. coli, Sigma), and CpG-DNA (TIB MOLBIOL). At the indicated time points the cells or culture supernatants were collected and used to prepare cytoplasmic and nuclear protein extracts or total cellular RNA.
# Gene expression analyses. Protein lysates were prepared from tissues and cultured macrophages, separated by SDS-polyacrylamide gel electrophoresis, transferred to Immobilon membranes (Millipore) and analyzed by immunoblotting. Total cellular RNA was extracted using TRIZOL (Invitrogen). cDNA was generated using SuperScript II (Invitrogen) and the amounts of the different mRNAs were measured by real-time PCR using GAPDH mRNA for normalization. Primer sequences are available upon request. Cytokine levels were measured using enzyme linked immunoadsorbent assays (ELISA).
# WT and Nod2^2939iC mice = test: DSS colitis with IL-1RA or antibiotic treatment, body weight, survival and histological scoring; type: in vivo; conditions: for mortality: 3% DSS for 6 days, by 10 days after DSS exposure
# Experimental: DSS colitis, IL-1RA treatment and histological scoring. Mice (8-12 weeks old) were given DSS (ICN Biomedicals Inc.) in the drinking water for 6 days as indicated and placed on regular water thereafter. When indicated, mice were also treated with neomycin sulfate (1.5 g/L) and metronidazole (1.5 g/L) (both from Sigma) in the drinking water or injected i.p. with either IL-1RA (Kineret®, Amgen Inc.) (100 mg/kg) in PBS or PBS alone once daily throughout the experiment. […] Histological scoring of fixed (10% formaldehyde) and sectioned (paraffin embedded) tissue was performed in a blinded manner. The scores were: 0=normal, 1=moderate mucosal inflammation without ulcer, 2=severe mucosal inflammation with ulcer (<1 mm) or no ulcer, 3=severe mucosal inflammation with ulcer (1-3 mm), 4=severe mucosal inflammation with ulcer (>3 mm).
compound,measurement,setting,value
"CC(=O)N[C@H]1C(O)O[C@H](CO)[C@@H](O)[C@@H]1O[C@H](C)C(=O)N[C@@H](C)C(=O)N[C@H](CCC(=O)O)C(N)=O (mixture of isomers) [MDP, muramyl dipeptide]",IL-6 secretion,[1]; BMDMs stimulated with MDP,neither IL-6 nor TNFα were secreted
same,release of mature IL-1β,"[1]; Nod2^2939iC macrophages, MDP 1 μg/ml, 24 hrs",stimulated release of mature IL-1β
dextran sodium sulfate [DSS],mortality,WT and Nod2^2939iC mice; Nod2^2939iC mice (n=16),37.5%
same,mortality,WT and Nod2^2939iC mice; WT mice (n=19),0%
same,time to death after DSS administration,"WT and Nod2^2939iC mice; 6% DSS without oral antibiotics, WT and Nod2^2939iC mice",≤ 9 days
"IL-1RA: IL-1 receptor antagonist (IL-1RA) (Kineret®, Amgen Inc.)",Average body weight loss,"WT and Nod2^2939iC mice; 3% DSS in drinking water for 6 days, IL-1RA 100 mg/kg i.p. once daily from the start of DSS exposure, WT and Nod2^2939iC mice",improved
same,differences in weight loss and inflammatory score between the genotypes,"WT and Nod2^2939iC mice; 3% DSS plus IL-1RA 100 mg/kg/day, WT vs Nod2^2939iC mice",abolished
same,histological score,"WT and Nod2^2939iC mice; 11 days after initiation of 3% DSS, IL-1RA 100 mg/kg/day i.p., WT and Nod2^2939iC mice",improved
same,colon histology: inflammation and ulceration compared to DSS alone,"WT and Nod2^2939iC mice; 11 days after initiation of DSS plus IL-1RA (100 mg/kg/day), WT and Nod2^2939iC mice",decreased inflammation and ulceration
